Test results from patent publication US20260085069A1, “PRODRUGS” (Cambridge Enterprise Limited, priority 2022, published 2026).
Values after ≈ are worked out from the molar mass of the structure shown.

Key:
[1] = Solubility in simulated fluids (kinetic solubility, 24 hours); type: physicochemical; settings: thermodynamic from solid, 24 hour timepoint, room temperature
Description: A known quantity of the Examples and control compounds were weighed into a suitable vessel (whatman miniuniprep vials) and a known volume of the required media was added (e.g. Simulated Gastric Fluid pH 1.2 [SGF], Simulated Fasted State Intestinal Fluid pH 6.5 [FaSSIF] or Phosphate Buffered Saline pH 7.4 [PBS]). The samples were subjected to vortex mixing for 2 minutes followed by agitation on a shaker for 24 hours at room temperature at 800 rpm.

in vitro = in vitro ADME; settings: rat intestinal microsomes, NADPH, 37° C.
Description: 5 μL of a 10 mM stock solution of the Examples were dissolved in 495 μL acetonitrile to afford 500 μL working solution.
The appropriate amount of β-Nicotinamide adenine dinucleotide phosphate reduced form, tetrasodium salt; NADPH-4Na (NADPH) powder was weighed and diluted into a 10 mM MgCl2 solution (working solution concentration: 10 unit/mL; final concentration in reaction system: 1 unit/mL).
The appropriate concentrations of rat intestinal microsome (Xenotech, cat. No R1000.1) working solutions were prepared in 100 mM potassium phosphate buffer.
Cold (4° C.) acetonitrile (ACN) containing 200 ng/mL tolbutamide and 200 ng/mL labetalol as internal standards (IS).
Incubation plates were pre-incubated for 10 minutes at 37° C. with constant shaking. 54 μL was transferred from Incubation plates into a blank plate and then 6 μL NADPH cofactor and 180 μL quenching solution was added to the Incubation plates. 5 μL Example working solution (100 μM) was also added to the Incubation plates and mixed thoroughly.
The T60 Incubation plate was mixed thoroughly and for the 0-min timepoint, 54 μL was transferred into a Quenching plate (containing 180 μL quenching solution and 6 μL NADPH cofactor). 44 μL NADPH cofactor was then added to the T60 Incubation plate and incubated at 37° C. for 60 min while shaking. At 5, 15, 30, 45, and 60 min, 60 μL samples were transferred from T60 Incubation plate into a Quenching plate (containing 180 μl quenching solution). For the NCF60 Incubation plate, 50 μL of buffer was added and mixed thoroughly before incubation at 37° C. for 60 min while shaking, at the 60-min time point 60 μL was transferred to the Quenching plate (containing 180 μl quenching solution). All sampling plates were shaken for 10 min, then centrifuged at 4000 rpm for 20 minutes at 4° C. 80 μL supernatant was transferred into 240 μL HPLC water, and mixed for 10 min.

[2] = type: in vitro ADME; settings: rat plasma, 37° C.
[3] = Stability in aqueous media (FaSSIF, SGF, PBS); type: physicochemical
[4] = Comparative solubility data for Reference Example 1 (thermodynamic and kinetic); type: physicochemical

Q: With `CCOC(=O)OCOC(=O)c1ccc2c(c1)nc(OCCOCCCCNCc1cc(F)c(OC(F)(F)F)c(F)c1)c1ccncc12` [Example 13, ((ethoxycarbonyl)oxy)methyl 5-(2-(4-((3,5-difluoro-4-(trifluoromethoxy)benzyl)amino)butoxy)ethoxy)benzo[c][2,6]naphthyridine-8-carboxylate] as the compound, how does the solubility kinetic at 24 h ([1]; simulated gastric fluid, SGF (pH 1.2)) read?
A: 17.8 µg/mL (≈ 26.7 µM)

Q: And the solubility kinetic at 24 h ([1]; FaSSIF (pH 6.5))?
A: 98 µg/mL (≈ 147 µM)

Q: And the “CIint(mic)” value (in vitro)?
A: 126.2 µL/min/mg

Q: And the half-life at 1 µM (in vitro)?
A: 18.3 min

Q: What about the “% Example remaining 0 min” value ([2]; 0 min) of the same compound?
A: 100.0%

Q: And the “Example concentration (nM) 0 min” value ([2]; 0 min)?
A: 1601.0 nM

Q: What about the “% Example remaining 10 min” value ([2]; 10 min) of the same compound?
A: 0.1%

Q: What about the “Example concentration (nM) 10 min” value ([2]; 10 min) of the same compound?
A: 1.6 nM

Q: And the “FaSSIF (pH 6.5) % remaining 1 h” value ([3]; FaSSIF pH 6.5, 37° C., 1 h)?
A: 106.5%

Q: And the “FaSSIF (pH 6.5) % remaining 6 h” value ([3]; FaSSIF pH 6.5, 37° C., 6 h)?
A: 99.8%

Q: What about the “FaSSIF (pH 6.5) % remaining 24 h” value ([3]; FaSSIF pH 6.5, 37° C., 24 h) of the same compound?
A: 96.8%

Q: And the “PBS (pH 7.4) % remaining 1 h” value ([3]; PBS pH 7.4, 37° C., 1 h)?
A: 84.3%

Q: And the “PBS (pH 7.4) % remaining 6 h” value ([3]; PBS pH 7.4, 37° C., 6 h)?
A: 17.5%

Q: What about the “PBS (pH 7.4) % remaining 24 h” value ([3]; PBS pH 7.4, 37° C., 24 h) of the same compound?
A: 20.5%

Q: What about the “SGF (pH 1.2) % remaining 1 h” value ([3]; SGF pH 1.2, 37° C., 1 h) of the same compound?
A: 106.8%

Q: And the “SGF (pH 1.2) % remaining 6 h” value ([3]; SGF pH 1.2, 37° C., 6 h)?
A: 63.6%

Q: What about the “SGF (pH 1.2) % remaining 24 h” value ([3]; SGF pH 1.2, 37° C., 24 h) of the same compound?
A: 21.5%

Q: Which results are given for `O=C(O)c1ccc2c(c1)nc(OCCOCCCCNCc1cc(F)c(OC(F)(F)F)c(F)c1)c1ccncc12` [Reference Example 1, 5-(2-(4-((3,5-difluoro-4-(trifluoromethoxy)benzyl)amino)butoxy)ethoxy)benzo[c][2,6]naphthyridine-8-carboxylic acid]?
A: solubility ([4]; aqueous buffer, kinetic from dmso stock, kinetic, phosphate buffer, initial pH 7.4): 31 µg/mL (≈ 54.8 µM); solubility ([4]; aqueous buffer, thermodynamic from solid, thermodynamic, phosphate buffer, initial pH 1.0): 256 µg/mL (≈ 453 µM); solubility ([4]; aqueous buffer, thermodynamic from solid, thermodynamic, phosphate buffer, initial pH 7.4): < 0.9 µg/mL; solubility ([4]; aqueous buffer, thermodynamic from solid, thermodynamic, phosphate buffer, initial pH 10.0): < 0.9 µg/mL; solubility ([4]; thermodynamic from solid, thermodynamic, FaSSIF, initial pH 6.5): 1.6 µg/mL (≈ 2.83 µM)
